Source: patent publication US9962113B2, “Sensor for measuring the activity of beta-pancreatic cells or of islets of langerhans, manufacture and use of such a sensor” (UNIVERSITE DE BORDEAUX 1, priority 2010, dated 2018)
Where no end group is shown, it is not given here.

Tested on: β-pancreatic cells
Assay: Electrical signals (action potentials) of β-pancreatic cells in culture on the microelectrode sensor of FIG. 1
Assay type: cell-based
Procedure: In the example embodiment shown in FIG. 1, the sensor 2 includes a set of 60 microelectrodes distributed over 1 mm^2. The microelectrodes 21 have a disk shape 10 μm in diameter. The sensor 2 also includes β-pancreatic cells 23 in culture on the set of 60 microelectrodes 21. Laboratory tests have been conducted on the sensor 2 of FIG. 1. The first line of FIG. 2 specifies the times at which glucose is present at 20 mM, i.e. from 0 to 50 min. The second line specifies the times at which diazoxide is present at 200 μM, i.e. from around 13 to 16 min and around 27 to 35 min. […] An action potential waveform is visible at the dotted vertical line. The first line of FIG. 4 specifies the time at which the β-pancreatic cells 23 of the sensor 2 are placed in contact with the incretin hormone GLP-1, shown by a vertical arrow.

| Compound | reversibility of the diazoxide effect on electrical activation (FIG. 2, after removal of diazoxide, glucose 20 mM alone) | physiological activity (action potentials) of the β-pancreatic cells of the sensor in the presence of diazoxide (FIG. 2, diazoxide 200 μM (around 13 to 16 min and 27 to 35 min) with glucose 20 mM) | time after GLP-1 injection until electrical activation increases (FIG. 4) | electrical activation (action potentials) of the β-pancreatic cells after GLP-1 (FIG. 4, after injection of the incretin hormone GLP-1) |
| --- | --- | --- | --- | --- |
| CC1=NS(=O)(=O)c2cc(Cl)ccc2N1 [diazoxide] | not definitive | basal physiological activity | – | – |
| GLP-1: incretin hormone, a physiological amplifier of the glucose response (HAEGTFTSDVSSYLEGQAAKEFIAWLVKGR; ends and bridges not checked; UniProt P01275 98-127, looked up) | – | – | twenty | increases significantly |
